Laboratory results reported in patent publication US8772499B2, “TRPV3 modulators” (AbbVie Inc., priority 2011, dated 2014).
pIC50: −log10 of the molar value. Read-outs that look alike come from different tables or passages of the source.

How the values were obtained:
[1] = In vitro rat microsomal stability assay; format: in vitro ADME, rat (Sprague-Dawley); conditions: Sprague-Dawley, rat, microsomes, 0.5 h, 0.5 μM, pH 7.4
Procedure, shortened: (§1)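 Incubations ran at 37° C. in microsomal preparations of rat (Sprague-Dawley) or human liver, with NADPH present, including at time zero.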

[2] = In vitro human microsomal stability assay; format: in vitro ADME; conditions: human, microsomes, 0.5 h, 0.5 μM, pH 7.4
Procedure, shortened: as §1

human TRPV3 = biological target: T1, human TRPV3 (Homo sapiens, UniProt Q8NET8); assay: In vitro antagonism of recombinant human TRPV3 activation (FLIPR Tetra calcium assay); format: cell-based; conditions: HEK293 cells stably expressing human TRPV3, agonist 2-APB at 80 μM
T1 construct: expressed in transfected cells
T1 sequence (Q8NET8 1-790): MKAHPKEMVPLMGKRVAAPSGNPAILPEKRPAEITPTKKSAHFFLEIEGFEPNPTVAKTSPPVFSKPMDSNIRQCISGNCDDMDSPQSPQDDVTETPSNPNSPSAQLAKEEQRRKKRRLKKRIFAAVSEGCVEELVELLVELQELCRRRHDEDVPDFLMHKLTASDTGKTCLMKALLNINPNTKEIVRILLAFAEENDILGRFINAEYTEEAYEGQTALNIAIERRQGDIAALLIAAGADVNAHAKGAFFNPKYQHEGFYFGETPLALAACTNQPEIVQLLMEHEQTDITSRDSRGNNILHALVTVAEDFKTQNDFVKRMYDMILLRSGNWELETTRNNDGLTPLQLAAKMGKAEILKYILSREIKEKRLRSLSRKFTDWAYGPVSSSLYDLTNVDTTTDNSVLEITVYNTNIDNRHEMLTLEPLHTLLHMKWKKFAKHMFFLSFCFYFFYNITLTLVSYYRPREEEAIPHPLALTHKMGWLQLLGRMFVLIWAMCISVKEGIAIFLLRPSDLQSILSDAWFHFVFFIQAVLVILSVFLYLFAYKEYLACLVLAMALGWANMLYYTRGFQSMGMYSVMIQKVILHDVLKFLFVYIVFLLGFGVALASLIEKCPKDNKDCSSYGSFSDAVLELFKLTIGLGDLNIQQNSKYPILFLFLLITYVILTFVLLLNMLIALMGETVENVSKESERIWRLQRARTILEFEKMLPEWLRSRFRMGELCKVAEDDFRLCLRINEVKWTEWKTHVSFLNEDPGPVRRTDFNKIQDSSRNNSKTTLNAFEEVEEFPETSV
Procedure, shortened: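 Calcium flux read over a 10 min run: compound added at 10 s to Calcium-4-loaded human TRPV3-HEK293 cells, agonist 2-APB (80 μM, its EC80) after 3 min. IC50 derived from peak-minus-baseline signal as percentage of uninhibited 2-APB response, typically averaged over at least two runs.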

[3] = actual measured value shown parenthetically, in most cases average of at least two runs, read-out: IC50
[4] = reported range, read-out: IC50 (range class)

| RAT MICROSOMAL STABILITY (% REMAINING AFTER 30 MINUTES) [1] [%] | HUMAN MICROSOMAL STABILITY (% REMAINING AFTER 30 MINUTES) [2] [%] | pIC50 (human TRPV3; [3]) | pIC50 (human TRPV3; [4]) | SMILES |
| --- | --- | --- | --- | --- |
| 21 | 54 | < 5.00 | – | O[C@H](c1ncccn1)C1(c2ccc(C(F)(F)F)cc2)CCC1 [Example 41, (S)-pyrimidin-2-yl{1-[4-(trifluoromethyl)phenyl]cyclobutyl}methanol] |
| 40 | 50 | < 5.00 | – | O[C@@H](c1ncccn1)C1(c2ccc(C(F)(F)F)cc2)CCC1 [Example 42, (R)-pyrimidin-2-yl{1-[4-(trifluoromethyl)phenyl]cyclobutyl}methanol] |
| 0.31 | 1.8 | 6.18 | 6.30 to 7.30 | OC(c1ccccn1)C1(c2ccc(Cl)c(Cl)c2)CCCCC1 (centres unmarked) [Example 43, [1-(3,4-dichlorophenyl)cyclohexyl](pyridin-2-yl)methanol] |
| 0.02 | 0.03 | 5.65 | – | Cc1ccccc1C(C)C1(C(O)c2ccccn2)CCC1 (centres unmarked) [Example 45, {1-[1-(2-methylphenyl)ethyl]cyclobutyl}(pyridin-2-yl)methanol] |
| 0.23 | 11 | 4.86 | – | CC(c1ccc(F)cc1)C1(C(O)c2ccccn2)CCC1 (centres unmarked) [Example 46, {1-[1-(4-fluorophenyl)ethyl]cyclobutyl}(pyridin-2-yl)methanol] |
| 0.13 | 15 | 5.49 | – | CC(c1ccc(Cl)cc1)C1(C(O)c2ccccn2)CCC1 (centres unmarked) [Example 49, {1-[1-(4-chlorophenyl)ethyl]cyclobutyl}(pyridin-2-yl)methanol] |
| 0.18 | 0.08 | 5.62 | – | CC(c1ccccc1Cl)C1(C(O)c2ccccn2)CCC1 (centres unmarked) [Example 50, {1-[1-(2-chlorophenyl)ethyl]cyclobutyl}(pyridin-2-yl)methanol] |
| 0.05 | 1.7 | 5.30 | – | Cc1ccc(CC2(C(O)c3ccccn3)CCC2)cc1 (centres unmarked) [Example 52, [1-(4-methylbenzyl)cyclobutyl](pyridin-2-yl)methanol] |
| 0.29 | 1.6 | 5.15 | – | OC(c1ccccn1)C1(C2CCc3ccccc32)CCC1 (centres unmarked) [Example 55, [1-(2,3-dihydro-1H-inden-1-yl)cyclobutyl](pyridin-2-yl)methanol] |
| 1.1 | 0.42 | 5.97 | – | OC(c1ccccn1)C1(C2CCCc3ccccc32)CCC1 (centres unmarked) [Example 56, pyridin-2-yl[1-(1,2,3,4-tetrahydronaphthalen-1-yl)cyclobutyl]methanol] |
| 10 | 16 | 5.03 | – | OC(c1ccccn1)C1(C2CCOc3ccccc32)CCC1 (centres unmarked) [Example 57, [1-(3,4-dihydro-2H-chromen-4-yl)cyclobutyl](pyridin-2-yl)methanol] |
| 33 | 36 | 5.44 | – | OC(c1ccccn1)C1(C(c2ccccc2)C(F)(F)F)CCC1 (centres unmarked) [Example 58, pyridin-2-yl[1-(2,2,2-trifluoro-1-phenylethyl)cyclobutyl]methanol] |
| 12 | 45 | 5.75 | – | OC(c1ccccn1)C1(c2ccc(Cl)c(Cl)c2)CCOCC1 (centres unmarked) [Example 59, [4-(3,4-dichlorophenyl)tetrahydro-2H-pyran-4-yl](pyridin-2-yl)methanol] |
| 23 | 31 | 5.82 | – | OC(c1ccccn1)C1(c2cccc(OC(F)(F)F)c2)CCOCC1 (centres unmarked) [Example 66, pyridin-2-yl{4-[3-(trifluoromethoxy)phenyl]tetrahydro-2H-pyran-4-yl}-methanol] |
| 47 | 58 | 5.59 | – | OC(c1ccccn1)C1(c2ccc(OC(F)(F)F)cc2)CCOCC1 (centres unmarked) [Example 67, pyridin-2-yl{4-[4-(trifluoromethoxy)phenyl]tetrahydro-2H-pyran-4-yl}-methanol] |
| 0.45 | 6.8 | 6.39 | – | OC(CC1(c2cccc(C(F)(F)F)c2)CCC1)c1ccccn1 (centres unmarked) [Example 74, 1-(pyridin-2-yl)-2-{1-[3-(trifluoromethyl)phenyl]cyclobutyl}ethanol] |
| 0.74 | 44 | 6.03 | – | OC(CC1(c2ccc(C(F)(F)F)cc2)CCC1)c1ccccn1 (centres unmarked) [Example 75, 1-(pyridin-2-yl)-2-{1-[4-(trifluoromethyl)phenyl]cyclobutyl}ethanol] |
| 0.47 | 39 | 6.19 | – | OC(CC1(c2ccc(OC(F)(F)F)cc2)CCC1)c1ccccn1 (centres unmarked) [Example 76, 1-(pyridin-2-yl)-2-{1-[4-(trifluoromethoxy)phenyl]cyclobutyl}ethanol] |
| 0.94 | 11 | 6.12 | – | OC(CC1(c2cccc(OC(F)(F)F)c2)CCC1)c1ccccn1 (centres unmarked) [Example 77, 1-(pyridin-2-yl)-2-{1-[3-(trifluoromethoxy)phenyl]cyclobutyl}ethanol] |
| 16 | 35 | 6.11 | – | OC(c1ccccn1)C1(c2ccc(Cl)c(Cl)c2)CC(F)(F)C1 (centres unmarked) [Example 82, [1-(3,4-dichlorophenyl)-3,3-difluorocyclobutyl](pyridin-2-yl)methanol] |
| 76 | 82 | 5.25 | – | OC(c1ccccn1)C1(c2ccc(C(F)(F)F)nc2)CCC1 (centres unmarked) [Example 85, pyridin-2-yl{1-[6-(trifluoromethyl)pyridin-3-yl]cyclobutyl}methanol] |
| 8.6 | 47 | < 4.70 | < 4.70 | OC(c1ccccn1)C1(c2ccc(Cl)c(Cl)c2)COC1 (centres unmarked) [Example 87, [3-(3,4-dichlorophenyl)oxetan-3-yl](pyridin-2-yl)methanol] |
| <0.01 | 35 | 6.34 | – | Cc1ccccc1C1(C(O)c2ccccn2)CCCO1 (centres unmarked) [Example 90, [2-(2-methylphenyl)tetrahydrofuran-2-yl](pyridin-2-yl)methanol] |
| 1.0 | 46 | 6.48 | – | Cc1cccc(C2(C(O)c3ccccn3)CCCO2)c1 (centres unmarked) [Example 91, [2-(3-methylphenyl)tetrahydrofuran-2-yl](pyridin-2-yl)methanol] |
